Assay results as given in patent US9301521B2, “Bee attractants” (priority 2013, dated 2016).

Assays:
O. lignaria = experiment: Field tests with fatty acids on filter papers, apple orchard in Utah; type: in vivo, Osmia lignaria; details: single fatty acid set; for Cells/replicate / Nests/replicate / Females/date: 400 CE per nest site; for Cells/replicate / Nests/replicate: five replicates; for Females/date: mean ± SE for 9 sample dates; for females found in artificial nest sites, range: 9 sample dates
Description: To better understand whether application of one, or some mixture of, free fatty acids to nesting material or artificial nest sites is attractive to O. lignaria, two experimental sets are generated so that one set tests for differences in bee response to each single fatty acid and the other set tests for differences in bee response to mixtures of the fatty acids described above in Table 11. Fatty acids are applied to separate filter papers so that each filter paper contains 200 CE. As a negative control, the volume of ethyl alcohol used for the other samples is applied to its own filter paper. For the experiment in an apple orchard in Utah, each small, corrugated plastic box artificial nest site (20×23×20 cm), with two bundles of 19 paper tubes each, is hung in an apple tree; nest sites are separated by one tree between them within each replicate group. To each nest site, two of the 200 CE impregnated filter papers are applied; thus, a total of 400 CE of the stimulus is present within each nest site. Each filter paper (containing either a single fatty acid, one mixture of fatty acids, or the negative control) is attached using cable ties to the front of one tube in each of the two bundles in each artificial nest site. The filter papers are replaced weekly. Each artificial nest site contains only one type of treatment. For the single fatty acid comparison, artificial nest sites are placed in the orchard in five replicates of the three treatments plus a control (i.e., four nest sites per replicate), with each artificial nest site opening facing southeast. For the mixtures of fatty acids comparison, artificial nest sites are placed in the orchard in five replicates of the four treatments plus a control (i.e., five nest sites per replicate), with each artificial nest site opening facing southeast. Both experimental sets are located in the same orchard where they are intermittently placed but separated by at least two rows of apple trees. A total of 540 female and 1000 male bees are released throughout the orchard at least one tree row from the artificial nest sites using several release box sites (with equal numbers of bees per box). Artificial nest sites are checked daily for the presence of male and female bees and for tubes with completed nests. Tubes with completed nests are removed and are replaced with fresh ones. Later, all nests containing any bee cells are examined with x-radiography to determine number of cells in each nest.

[1] = test system: O. cornifrons female antennae; experiment: EAG response to specific fatty acids and mixtures; set-up: species or system Osmia cornifrons; details: O. cornifrons (n = 12); 100 CE
Description: (§1) The objective of this example is to compare antennal responses of three Osmia species (O. lignaria, O. bucephala, and O. cornifrons obtained from near a Pennsylvania apple orchard) to each of three fatty acids, each combined mixture of two acids, and the combined mixture of all acids (see Table 11). Female and male bees are maintained in laboratory cages and fed honey-water ad libitum for four days. On the fourth day, one antenna at a time is removed from each chilled, live female test bee with scissors and placed on the electrode probe of a Syntech EAG (Kirchzarten, Germany). The electrode with the antenna is inserted into a glass tube into which flows humidified air, and into which a stimulus (air, a fatty acid, or fatty acid mixture) is applied.
(§2) Each of the above indicated fatty acids, purchased from Sigma-Aldrich (St. Louis, Mo.), are dissolved in ethyl alcohol at a concentration similar to that used for the Synthetic Blend. Each fatty acid and each mixture (Equistar Chemicals, LP, Houston, Tex.) is evenly applied to a circular filter paper in Petri dish (9 cm) at dose of 100 CE. A 1.5 cm^2 piece of filter paper is cut from the center of the filter paper circle. The piece of filter paper is placed into the disposable glass pipette (4.6 cm) that is used for delivery by applying a controlled puff of air over the filter paper.
(§3) Each of the single or mixtures of fatty acids described above (see Table 11) and a control (air) are tested on an antenna: Air or filter paper pieces with each fatty acid or fatty acids mixture are delivered in succession every minute until an antenna is exposed to each cue and air three times (total test period=30 minutes). The antennal responses are recorded, and their amplitudes are measured using Syntech EAG software (Kirchzarten, Germany). The antennal responses of ≦12 female bees per species are recorded. […]

[2] = test system: O. bucephala female antennae; experiment: EAG response to specific fatty acids and mixtures; set-up: species or system Osmia bucephala; details: O. bucephala (n = 8); 100 CE
Description: as §1, §2, §3

[3] = test system: O. lignaria female antennae; experiment: EAG response to specific fatty acids and mixtures; set-up: species or system Osmia lignaria; details: O. lignaria (n = 12); 100 CE
Description: as §1, §2, §3

[4] = Evaporation rates of attractants (weight loss of vials); type: physicochemical
Protocol: The objective of this experiment is to quantify the loss of the fatty acids and Synthetic Blend via evaporation. Synthetic Blend is prepared as per Example 3. Decanoic acid, dodecanoic acid, and tetradecanoic acid are purchased as per Example 4. Synthetic Blend is a liquid at room temperature. Vials containing between 0.235 and 0.304 grams of either Synthetic Blend or each individual fatty acid are placed in a 40° C. incubator and a ˜30° C. incubator room with a fan and are weighed after 1, 4, 10, 24, 31, 39 and 44 days. Three vials are monitored for each attractant, and the average weight loss is calculated. All samples lose weight faster at 30° C. with airflow compared to 40° C. without airflow. After […] at 30° C. with airflow, Synthetic Blend loses only 0.57% of its weight (see FIG. 2). This loss of mass is caused mostly by evaporation of decanoic acid which comprises approximately 73% of Synthetic Blend. After 24 days, Synthetic Blend loses 9.8% of its mass and after 44 days, 17.2% of its mass. A linear relationship is found between weight loss and days for both environments (see FIG. 3).

Row | SMILES | Cells/replicate (O. lignaria) | Nests/replicate (O. lignaria) | Females/date (O. lignaria) | Mean Amplitude ± SE [1] | Mean Amplitude ± SE [2] | Mean Amplitude ± SE [3] | females found in artificial nest sites, range (O. lignaria) | relative evaporation of blend components [4]
1 | CCCCCCCCCCCC(=O)O [Dodecanoic acid, dodecanoic acid] | 8.8 ± 7.40 | 1.4 ± 1.17 | 3.4 ± 0.67 | −0.43 ± 0.04 | −0.83 ± 0.06 | −0.41 ± 0.03 | – | –
2 | CCCCCCCCCC(=O)O [Decanoic acid, decanoic acid] | 13.4 ± 6.13 | 2.6 ± 1.17 | 10.2 ± 1.14 | −0.89 ± 0.06 | −1.31 ± 0.10 | −0.98 ± 0.06 | 4-15 | evaporated much faster than tetradecanoic acid and dodecanoic acid
3 | CCCCCCCCCCCCCC(=O)O [Tetradecanoic acid, tetradecanoic acid] | 1.6 ± 1.6 | 0.2 ± 0.2 | 0.4 ± 0.17 | −0.43 ± 0.04 | −0.92 ± 0.07 | −0.41 ± 0.03 | 0-1 | –
